# Experimental data as given in patent US12312599B2, “Methods, compositions, and kits for producing beige adipocytes and treating metabolic disorders” (MaineHealth, priority 2018, dated 2025).
# B1: IL-4: human IL-4 (Peprotech), used at 10 nM (protein, UniProt P05112 25-153, looked up)
# Interleukin-4: HKCDITLQEIIKTLNSLTEQKTLCTELTVTDIFAASKNTTEKETFCRAATVLRQFYSHHEKDTRCLGATAQQFHRHKQLIRFLKRLDRNLWGLAGLNSCPVKEANQSTLENFLERLKTIMREKYSKCSS
# Assays:
# Assay type in all cases: cell-based, human
# iPSCs = test: Mesoderm induction of iPSCs: FOXF1 and IRX3 expression
# Experimental: PSCs were cultured in monolayer on hESC-qualified Matrigel-coated plates (Corning) and expanded in NutriStem hPSC XF Medium (Stemgent) and passaged with ReLeSR passaging reagent (STEMCELL Technologies). For mesoderm induction (Day 0), PSC colonies was dissociated with TrypLE cell dissociation reagent (Thermofisher) and plated on Matrigel coated plates in NutriStem medium containing 10 μM Y-27632 Rho kinase inhibitor (Calbiochem). The following day (Day 1), NutriStem medium was replaced with STEMdiff Mesoderm Induction Medium (MIM) (STEMCELL Technologies) and changed each day until day 5.
# Note: Only use Y-27632 stock solutions that have been resuspended in DMSO. […] Conduct Mesoderm induction of iPSC in a laminar flow cabinet. • 3. Expand cells in NutriStem hPSC XF Medium overnight and change 100% of the medium without Y-27632 every 24 hours in a laminar flow cabinet for cell culture. When changing media, tilt plate up and allow media to pool at the bottom of wells. Aspirate the pooled medium without touching the surface of the plate. Replace with medium warmed to room temperature by pipetting 2 ml down the side of the wells. Cell Passaging • 1. Expand cell colonies until they have reached 70-80% confluence in high-density areas of the wells. High-density accumulation can occur along the edges of the well as well as the middle. Cells permitted to reach high density will lose their potential for differentiation after multiple passages. • 2. Prior to cell passage, warm cell wash buffer and NutriStem hPSC XF Medium to room temperature. Conduct cell passage in a laminar flow cabinet. • 3. Aspirate NutriStem hPSC XF Medium from wells with vacuum aspirator and wash with PBS without calcium or magnesium. Remove PBS and add 1 ml of ReLeSR reagent to side of well. Agitate plate to allow ReLeSR reagent to spread evenly on the surface. • 4. Aspirate ReLeSR reagent with vacuum aspirator after 30 seconds, which will leave behind a thin film of liquid. Incubate plate at 37° C. for 5-8 minutes undisturbed. • 5. Add fresh NutriStem hPSC XF Medium to wells and gently remove the cell colonies from the plate. Check that most cells have been dislodged from the plate surface with a light microscope. If not, rewash with more medium as needed. • 6. Transfer cell colony suspension in NutriStem hPSC XF Medium to Matrigel coated culture plates for further expansion (see Cell plating and culture above). Generation of iPSC Derived MSCs Mesoderm Induction of iPSC • 1. When iPSCs have reached 70-80% confluence, they will need to be passaged as single cells rather than colonies prior to mesoderm induction (day 0). • 2. Prepare for passage by warming cell wash buffer and NutriStem hPSC XF medium to room temperature and add Y-27632 Rho kinase inhibitor to medium at a final concentration of 10 μM. […]
# iPSC-beige adipocytes [1] = test: Fatty acid uptake assay; conditions: adipocytes whitened 6 days without rosiglitazone
# Experimental: Following washes, add secondary antibody diluted at a ratio of 1:1200 and incubate 2 hours at room temperature. • 5. Remove secondary antibody solution and wash 3 times with TBS with Tween 20 (5 minutes per wash). • 6. Develop membrane with Clarity™ Western ECL Substrate and detect using a Bio-Rad ChemiDoc Touch Imaging System. • 7. Quantitation of protein was performed using Image Lab software (Bio-Rad). Fatty Acid Uptake Assay Preparation • 1. Expand and grow iPSC-beige and whitened iPSC-beige adipocytes to full maturity in a 96 well plate (day 12) (see Generation of beige adipocytes above). To whiten iPSC-beige adipocytes for this assay, induce iPSC-MSCs for three days in the induction cocktail as described in the differentiation protocol (see Generation of beige adipocytes above). Following three days of induction, replace beige induction medium with DMEM containing 10% FBS and insulin ([…]). Change 100% of medium every 3 days until full maturity (day 12). • 2. On day 12, replace culture medium with DMEM containing 10% FBS. Change 100% of medium every 2 days for 6 days. • 3. Following 6 days of rest, remove culture medium and replace with […] of serum free DMEM containing 0.2% BSA. Incubate the plate at 37° C. in a 5% CO2 incubator for 1 hour. • 4. After 1 hour, add CL316,243 ([…]) to designated wells. Allow cells to incubate for 2 hours. • 5. […] Quantification and Statistical Analysis
# iPSC-beige adipocytes [2] = test: Seahorse XF oxygen consumption after β3-adrenergic stimulation; conditions: adipocytes whitened 4 days without rosiglitazone, CL316,243 for 4 hr
# iPSC-beige adipocytes [3] = test: UCP1 qPCR after β3-adrenergic stimulation of iPSC-beige adipocytes
# FD-MSCs = test: Beige adipogenic precursor markers in FD-MSCs (flow cytometry, immunostaining, qPCR); conditions: 2 days pretreatment
# Experimental: All assays were performed between 7 and 15 passages. For osteocyte differentiation, mature MSCs were grown in 24 well culture plates to 100% confluency in MesenCult-ACF and induced to differentiate in OsteoLife Complete Osteogenesis Medium (Lifeline Cell Technology) for 21 days prior to staining with Lifeline Alizarin Red Stain to visualize calcium deposition. For chondrocyte differentiation. For beige adipogenic precursor generation, cells were grown in 24 well culture plates to 90% confluence and treated with 5 uM SB413542 (Sigma) and 10 nM human IL-4 (Peprotech) for 2 days. For beige adipogenic induction, adipogenic precursors are differentiated for 3 days with adipogenic medium consisting of T3 (2 nM), insulin (170 nM), rosiglitazone (1 μM), SB413542 (5 uM), IBMX (0.5 mM), dexamethasone (5 μM) and indomethacin (125 μM) in EGM-2 medium (Lonza) supplemented with the BulletKit minus FGF2 (modified from^33). Thereafter, cells are maintained in adipogenic medium without IBMX, dexamethasone and indomethacin. The medium was changed every 3 days and adipocytes were fully differentiated by 9-12 days as determined by lipid accumulation and peak expression of UCP1.
# Cell Isolation, Expansion and Differentiation of Interscapular Brown Adipose Tissue Preadipocytes • 1. Prior to adipose cell isolation, warm DMEM, FBS and cell wash buffer to room temperature. • 2. In a laminar flow cabinet for cell culture, place 5 g of adipose tissue on a 100×20 mm dish. Suspend tissue in 1 mL of Adipose Tissue Dissociation Kit enzyme digest cocktail and finely mince with a razorblade. • 3. Transfer cell suspension slurry to a 5 mL polystyrene round bottom tube and add an additional 1.5 mL of enzyme digest cocktail to tube. • 4. Incubate tube at 37° C. on a rotating nutator for 30 minutes. During incubation period, briefly vortex sample for 5 s in 10-minute intervals. • 5. Transfer cells to a 15 mL tube and add 5 mL of DMEM. Filter cell suspension through a 100 μm strainer into a new 15 mL tube and centrifuge at 300 g for 5 minutes to form a pellet. • 6. Remove supernatant and leave behind […] of DMEM. […]
molecule,measurement,setting,value
Cc1c[nH]c(-c2cnc(NCCNc3ccc(C#N)cn3)nc2-c2ccc(Cl)cc2Cl)n1 [CHIR],FOXF1 protein compared to StemDiff MIM,iPSCs; 1.5 μM CHIR in combination with VEGF and BMP4,significant increase
same,expression of FOXF1 (qPCR),iPSCs; CHIR raised to 5 μM in combination with BMP4 and VEGF,decrease
"C[C@H](Cc1ccc2c(c1)OC(C(=O)[O-])(C(=O)[O-])O2)NC[C@H](O)c1cccc(Cl)c1.[Na+].[Na+] [CL316,243]",fatty acid (FA) uptake,iPSC-beige adipocytes [1],increased
same,overall respiration and proton leak,iPSC-beige adipocytes [2],increased overall respiration and proton leak
same,effect on UCP1 expression,"iPSC-beige adipocytes [3]; during initial differentiation, in the presence of rosiglitazone",masked or inhibitory
same,UCP1 expression,"iPSC-beige adipocytes [3]; during initial differentiation, without rosiglitazone",increased
same,UCP1 expression,"iPSC-beige adipocytes [3]; mature iPSC-beige adipocytes, CL316,243 1 μM, 4 hr",increased expression
B1,transcription of beige adipogenic precursor markers PDGFRα and EBF2,FD-MSCs,little effect
